Assay results taken from article PMC11882969 (Nature Communications, 2025).
Where two headings read alike, the source gives them in different places.

How the values were obtained:
[1] = target: T1, CB1 (rCB1) (Rattus norvegicus, UniProt P20272); test: Radioligand competition binding, [3H]-CP-55,940, rat brain membranes
[2] = target: T1, CB1 (rCB1); test: Single-point radioligand displacement screen; assay type: binding; conditions: 10 µM, 1 µM or 300 nM by cell colour (not visible)
[3] = target: hCB1 (Homo sapiens, UniProt P21554); test: bioSensAll ebBRET signaling profiling, hCB1; assay type: cell-based; set-up: host or cells: HEK293SL cells, transient PEI transfection; conditions: for Barr2+GRK2 hCB1 response: Barr2+GRK2 biosensor; for Gi1 hCB1 / GoB hCB1: single replicate values, FigS6a; for EC50: hCB1 GoB; for Emax: normalized to CP-55,940
hCB1, sequence (P21554 whole entry): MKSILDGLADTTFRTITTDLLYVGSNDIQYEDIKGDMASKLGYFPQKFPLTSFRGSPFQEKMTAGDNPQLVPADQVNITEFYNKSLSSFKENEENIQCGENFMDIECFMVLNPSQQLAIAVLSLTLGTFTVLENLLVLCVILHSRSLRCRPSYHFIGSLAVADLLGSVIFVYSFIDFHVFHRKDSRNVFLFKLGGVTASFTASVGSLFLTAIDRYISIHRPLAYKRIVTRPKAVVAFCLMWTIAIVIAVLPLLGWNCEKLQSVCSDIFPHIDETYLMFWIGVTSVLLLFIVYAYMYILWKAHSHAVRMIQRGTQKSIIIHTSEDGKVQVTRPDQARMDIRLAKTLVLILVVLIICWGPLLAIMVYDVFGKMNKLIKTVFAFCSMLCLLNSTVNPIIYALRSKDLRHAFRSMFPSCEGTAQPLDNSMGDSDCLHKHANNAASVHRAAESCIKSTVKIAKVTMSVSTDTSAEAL

T1 sequence (P20272 whole entry): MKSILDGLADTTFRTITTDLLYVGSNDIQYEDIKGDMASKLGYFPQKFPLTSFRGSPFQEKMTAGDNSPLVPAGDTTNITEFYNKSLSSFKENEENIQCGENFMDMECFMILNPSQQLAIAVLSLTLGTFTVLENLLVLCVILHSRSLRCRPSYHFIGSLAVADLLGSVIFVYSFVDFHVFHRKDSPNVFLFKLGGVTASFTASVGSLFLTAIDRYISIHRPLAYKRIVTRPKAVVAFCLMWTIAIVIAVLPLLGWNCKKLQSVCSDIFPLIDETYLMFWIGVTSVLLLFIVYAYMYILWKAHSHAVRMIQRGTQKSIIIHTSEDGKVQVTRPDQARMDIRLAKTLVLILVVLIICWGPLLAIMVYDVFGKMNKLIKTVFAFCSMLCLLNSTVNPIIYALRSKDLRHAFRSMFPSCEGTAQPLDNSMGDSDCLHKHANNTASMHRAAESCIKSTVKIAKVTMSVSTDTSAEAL

## Cn1nc(-c2nnc(C(C)(C)Oc3ccc(C(F)(F)F)cc3)o2)c2ccccc2c1=O [‘2153]
[1]; rCB1
  pKi [95% CI]: 6.79 [6.5 – 7.0]
[2]
  % 1H-CP-55,940 displacement (mean) from single point screen: 89.82%
[3]; Log [Compound] (M) -4.22186
  Barr2+GRK2 hCB1 response: 52.3115
  Gi1 hCB1: 75.7197
  GoB hCB1: 87.0618
[3]; Log [Compound] (M) -4.63927
  Barr2+GRK2 hCB1 response: 1.898
  Gi1 hCB1: 62.7492
  GoB hCB1: 68.3981
[3]; Log [Compound] (M) -5.05788
  Barr2+GRK2 hCB1 response: -31.9237
  Gi1 hCB1: 53.1046
  GoB hCB1: 59.4743
[3]; Log [Compound] (M) -5.47381
  Barr2+GRK2 hCB1 response: -49.7918
  Gi1 hCB1: 46.6906
  GoB hCB1: 51.6096
[3]; Log [Compound] (M) -5.89285
  Barr2+GRK2 hCB1 response: -32.2428
  Gi1 hCB1: 39.3106
  GoB hCB1: 42.3906
[3]; Log [Compound] (M) -6.31878
  Barr2+GRK2 hCB1 response: -30.3284
  Gi1 hCB1: 39.2789
  GoB hCB1: 35.0814
[3]; Log [Compound] (M) -6.72585
  Barr2+GRK2 hCB1 response: -23.6278
  Gi1 hCB1: 25.5166
  GoB hCB1: 29.2133
[3]; Log [Compound] (M) -7.14267
  Barr2+GRK2 hCB1 response: -46.282
  Gi1 hCB1: 15.7294
  GoB hCB1: 18.1713
[3]; Log [Compound] (M) -7.55284
  Barr2+GRK2 hCB1 response: -43.4104
  Gi1 hCB1: 6.592
  GoB hCB1: 8.536
[3]; Log [Compound] (M) -8
  Barr2+GRK2 hCB1 response: -60.3212
  Gi1 hCB1: 0.6052
  GoB hCB1: 0.9487
[3]; Log [Compound] (M) -8.22186
  Barr2+GRK2 hCB1 response: 12.7465
  Gi1 hCB1: 7.605
  GoB hCB1: 6.383
[3]; Log [Compound] (M) -8.39794
  Barr2+GRK2 hCB1 response: -37.9861
  Gi1 hCB1: -1.77
  GoB hCB1: -8.426
[3]; Log [Compound] (M) -8.68787
  Barr2+GRK2 hCB1 response: -0.01644
  Gi1 hCB1: -5.112
  GoB hCB1: -5.249
[3]; Log [Compound] (M) -9.15521
  Barr2+GRK2 hCB1 response: -27.1376
  Gi1 hCB1: -4.764
  GoB hCB1: -4.208
[3]; Log [Compound] (M) -9.61989
  Barr2+GRK2 hCB1 response: -19.4799
  Gi1 hCB1: -4.051
  GoB hCB1: -5.197
[3]; Log [Compound] (M) -10.0969
  Barr2+GRK2 hCB1 response: -46.6011
  Gi1 hCB1: -5.445
  GoB hCB1: -5.371
[3]; Log [Compound] (M) -10.5529
  Barr2+GRK2 hCB1 response: -22.3515
  Gi1 hCB1: -5.27
  GoB hCB1: -5.926
[3]; Log [Compound] (M) -11.0177
  Barr2+GRK2 hCB1 response: -18.8417
  Gi1 hCB1: -5.413
  GoB hCB1: -5.284
[3]; Log [Compound] (M) -11.4949
  Barr2+GRK2 hCB1 response: -32.5619
  Gi1 hCB1: -5.698
  GoB hCB1: -6.413
[3]; Log [Compound] (M) -11.9208
  Barr2+GRK2 hCB1 response: -20.4371
  Gi1 hCB1: -5.872
  GoB hCB1: -5.041
[3]; Log [Compound] (M) -12.3979
  Barr2+GRK2 hCB1 response: -30.0093
  Gi1 hCB1: -4.415
  GoB hCB1: -7.09
[3]; Log [Compound] (M) -12.8861
  Barr2+GRK2 hCB1 response: -33.2
  Gi1 hCB1: -6.854
  GoB hCB1: -5.666
[3]; Log [Compound] (M) -13.3979
  Barr2+GRK2 hCB1 response: 30.2955
[3]; Log [Compound] (M) -13
  Gi1 hCB1: -4.779
  GoB hCB1: -5.6139
[3]; Log [Compound] (M) cell empty
  Gi1 hCB1: -2.087
  GoB hCB1: -1.829
[3]; hCB1 Gi1
  pEC50 [95% CI]: 6.0 [5.2 – 6.4]
[3]
  EC50: 2000 nM
[3]; read-out: EC50 [95% CI]
  EC50: 2060 nM
[3]; read-out: Emax [95% CI], hCB1 Gi1
  Emax: 89%
[3]; read-out: Emax [95% CI], hCB1 GoB
  Emax: 109%

## Brc1cc2c(cc1Cc1noc(-c3cnn(CC4CC4)c3)n1)OCO2 [‘5424]
[1]
  Ki: 876 nM
[2]
  % 1H-CP-55,940 displacement (mean) from single point screen: 80.66%
[3]; Log [Compound] (M) -4.22186
  Barr2+GRK2 hCB1 response: 13.3846
  Gi1 hCB1: -12.5553
  GoB hCB1: -17.0204
[3]; Log [Compound] (M) -4.63927
  Barr2+GRK2 hCB1 response: -34.7954
  Gi1 hCB1: -11.9852
  GoB hCB1: -18.7739
[3]; Log [Compound] (M) -5.05788
  Barr2+GRK2 hCB1 response: -53.3016
  Gi1 hCB1: -14.0757
  GoB hCB1: -12.8536
[3]; Log [Compound] (M) -5.47381
  Barr2+GRK2 hCB1 response: -24.9041
  Gi1 hCB1: -12.6978
  GoB hCB1: -15.4926
[3]; Log [Compound] (M) -5.89285
  Barr2+GRK2 hCB1 response: -50.1109
  Gi1 hCB1: -12.001
  GoB hCB1: -16.569
[3]; Log [Compound] (M) -6.31878
  Barr2+GRK2 hCB1 response: -50.749
  Gi1 hCB1: -13.0779
  GoB hCB1: -15.128
[3]; Log [Compound] (M) -6.72585
  Barr2+GRK2 hCB1 response: -48.8346
  Gi1 hCB1: -11.811
  GoB hCB1: -16.3259
[3]; Log [Compound] (M) -7.14267
  Barr2+GRK2 hCB1 response: -52.6635
  Gi1 hCB1: -11.1775
  GoB hCB1: -15.4926
[3]; Log [Compound] (M) -7.55284
  Barr2+GRK2 hCB1 response: -51.0681
  Gi1 hCB1: -10.8449
  GoB hCB1: -14.0342
[3]; Log [Compound] (M) -8
  Barr2+GRK2 hCB1 response: -33.5191
  Gi1 hCB1: -8.707
  GoB hCB1: -12.871
[3]; Log [Compound] (M) -8.22186
  Barr2+GRK2 hCB1 response: -13.7366
  Gi1 hCB1: -5.46
  GoB hCB1: -9.781
[3]; Log [Compound] (M) -8.39794
  Barr2+GRK2 hCB1 response: -34.7954
  Gi1 hCB1: -6.126
  GoB hCB1: -10.3709
[3]; Log [Compound] (M) -8.68787
  Barr2+GRK2 hCB1 response: -65.1073
  Gi1 hCB1: -3.497
  GoB hCB1: -5.77
[3]; Log [Compound] (M) -9.15521
  Barr2+GRK2 hCB1 response: -41.4959
  Gi1 hCB1: -3.212
  GoB hCB1: -5.544
[3]; Log [Compound] (M) -9.61989
  Barr2+GRK2 hCB1 response: -48.1965
  Gi1 hCB1: -0.3926
  GoB hCB1: -4.867
[3]; Log [Compound] (M) -10.0969
  Barr2+GRK2 hCB1 response: -56.8114
  Gi1 hCB1: -1.39
  GoB hCB1: -5.128
[3]; Log [Compound] (M) -10.5529
  Barr2+GRK2 hCB1 response: -48.8346
  Gi1 hCB1: 0.9853
  GoB hCB1: -3.287
[3]; Log [Compound] (M) -11.0177
  Barr2+GRK2 hCB1 response: -49.7918
  Gi1 hCB1: -1.058
  GoB hCB1: -4.781
[3]; Log [Compound] (M) -11.4949
  Barr2+GRK2 hCB1 response: -48.1965
  Gi1 hCB1: -2.008
  GoB hCB1: -5.51
[3]; Log [Compound] (M) -11.9208
  Barr2+GRK2 hCB1 response: -46.9202
  Gi1 hCB1: -4.653
  GoB hCB1: -6.586
[3]; Log [Compound] (M) -12.3979
  Barr2+GRK2 hCB1 response: -47.8774
  Gi1 hCB1: -2.024
  GoB hCB1: -6.3778
[3]; Log [Compound] (M) -12.8861
  Barr2+GRK2 hCB1 response: -20.4371
  Gi1 hCB1: -1.992
  GoB hCB1: -4.242
[3]; Log [Compound] (M) -13.3979
  Barr2+GRK2 hCB1 response: -11.8221
[3]; Log [Compound] (M) -13
  Gi1 hCB1: 0.06671
  GoB hCB1: -4.798
[3]; Log [Compound] (M) cell empty
  Gi1 hCB1: -0.7726
  GoB hCB1: -5.458
